ChEMBL document CHEMBL5465560, “Selectivity Literature for EUbOPEN Chemogenomic Library” (2024)
Values belong to the compound of their own block, whether it stands above or below them.

Key:
[1] = target: Serine/threonine-protein kinase pim-1 (Homo sapiens, UniProt P11309); details: at 10 µM
[2] = target: T1, SNF-related serine/threonine-protein kinase (Homo sapiens) (UniProt Q9NRH2); test: Selectivity interaction (KinomeScan (DiscoverX)) EUB0000607a SNRK; details: at 10 µM
T1 sequence (whole entry): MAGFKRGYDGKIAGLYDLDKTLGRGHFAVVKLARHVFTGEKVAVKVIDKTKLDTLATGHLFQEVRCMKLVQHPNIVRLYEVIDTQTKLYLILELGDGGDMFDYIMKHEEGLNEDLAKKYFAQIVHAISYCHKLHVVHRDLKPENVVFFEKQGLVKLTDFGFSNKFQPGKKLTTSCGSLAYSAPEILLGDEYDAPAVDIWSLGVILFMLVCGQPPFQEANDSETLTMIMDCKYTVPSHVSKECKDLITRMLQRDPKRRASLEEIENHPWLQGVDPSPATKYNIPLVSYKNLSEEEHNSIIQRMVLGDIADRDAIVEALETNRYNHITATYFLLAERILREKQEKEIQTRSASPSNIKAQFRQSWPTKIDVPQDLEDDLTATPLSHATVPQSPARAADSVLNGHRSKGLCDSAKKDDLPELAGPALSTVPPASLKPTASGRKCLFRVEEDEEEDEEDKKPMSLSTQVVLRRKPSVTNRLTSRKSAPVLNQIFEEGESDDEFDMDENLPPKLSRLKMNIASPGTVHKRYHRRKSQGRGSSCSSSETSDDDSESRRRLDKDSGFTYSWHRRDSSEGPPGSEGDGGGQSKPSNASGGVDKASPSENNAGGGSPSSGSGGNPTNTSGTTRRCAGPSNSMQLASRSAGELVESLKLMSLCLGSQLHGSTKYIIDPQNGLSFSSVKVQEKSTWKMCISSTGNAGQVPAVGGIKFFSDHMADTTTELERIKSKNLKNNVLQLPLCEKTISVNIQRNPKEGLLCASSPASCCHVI

[3] = target: T2, Muscle, skeletal receptor tyrosine-protein kinase (Homo sapiens) (UniProt O15146); test: Selectivity interaction (KinomeScan (DiscoverX)) EUB0001619a MUSK; details: at 1 µM
T2 sequence (whole entry): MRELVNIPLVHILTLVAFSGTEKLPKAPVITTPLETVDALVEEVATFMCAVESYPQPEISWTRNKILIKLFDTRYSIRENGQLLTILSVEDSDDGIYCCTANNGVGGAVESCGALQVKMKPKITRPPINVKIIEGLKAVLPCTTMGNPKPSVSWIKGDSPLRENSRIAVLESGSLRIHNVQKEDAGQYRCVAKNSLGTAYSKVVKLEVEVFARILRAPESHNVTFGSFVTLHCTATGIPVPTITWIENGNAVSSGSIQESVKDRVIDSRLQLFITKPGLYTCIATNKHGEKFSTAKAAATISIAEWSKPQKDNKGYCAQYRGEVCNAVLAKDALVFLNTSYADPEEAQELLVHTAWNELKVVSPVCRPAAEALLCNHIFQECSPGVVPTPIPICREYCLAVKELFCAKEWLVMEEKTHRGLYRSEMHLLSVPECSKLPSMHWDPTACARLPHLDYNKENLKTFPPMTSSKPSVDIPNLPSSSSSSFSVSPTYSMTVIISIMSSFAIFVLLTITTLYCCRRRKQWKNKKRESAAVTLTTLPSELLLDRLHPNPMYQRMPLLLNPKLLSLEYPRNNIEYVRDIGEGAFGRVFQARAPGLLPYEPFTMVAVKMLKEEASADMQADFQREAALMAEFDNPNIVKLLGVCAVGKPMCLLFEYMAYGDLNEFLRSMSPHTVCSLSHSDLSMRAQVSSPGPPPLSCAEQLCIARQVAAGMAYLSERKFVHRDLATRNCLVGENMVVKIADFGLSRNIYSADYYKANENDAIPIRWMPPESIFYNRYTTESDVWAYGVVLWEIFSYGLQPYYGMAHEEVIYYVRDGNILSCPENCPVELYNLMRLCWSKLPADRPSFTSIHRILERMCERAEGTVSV

[4] = target: Activin receptor type-2B (Homo sapiens) (UniProt Q13705); test: Selectivity interaction (Kinase panel (Invitrogen)) EUB0000639a ACVR2B; details: at 200 nM
[5] = target: Cyclin-dependent kinase 15 (Homo sapiens) (UniProt Q96Q40); test: Selectivity interaction (KinomeScan (DiscoverX)) EUB0000229b CDK15; details: at 10 µM
[6] = target: Potassium voltage-gated channel subfamily A member 5 (Homo sapiens) (UniProt P22460); test: Selectivity interaction (Panel of kinases, GPCRs, ion channels and transporters (enzymatic assay)) EUB0000223bCl KCNA5
[7] = target: T3, Activin receptor type-1 (Homo sapiens) (UniProt Q04771); test: Selectivity interaction (KinomeScan (DiscoverX)) EUB0000666a ACVR1; details: at 10 µM
T3 sequence (whole entry): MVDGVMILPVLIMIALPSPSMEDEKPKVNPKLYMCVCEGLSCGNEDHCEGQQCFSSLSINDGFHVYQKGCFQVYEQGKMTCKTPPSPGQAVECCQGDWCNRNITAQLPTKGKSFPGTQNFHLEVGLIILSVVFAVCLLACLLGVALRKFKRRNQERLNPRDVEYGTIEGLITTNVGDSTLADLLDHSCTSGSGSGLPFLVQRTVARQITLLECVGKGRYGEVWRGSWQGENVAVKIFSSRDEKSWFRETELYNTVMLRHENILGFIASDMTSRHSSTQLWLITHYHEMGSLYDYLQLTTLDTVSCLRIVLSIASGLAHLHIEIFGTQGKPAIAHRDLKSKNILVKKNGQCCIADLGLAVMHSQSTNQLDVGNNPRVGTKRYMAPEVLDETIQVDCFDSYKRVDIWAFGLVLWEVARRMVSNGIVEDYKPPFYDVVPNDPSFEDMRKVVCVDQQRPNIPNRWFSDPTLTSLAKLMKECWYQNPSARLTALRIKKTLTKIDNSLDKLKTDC

[8] = target: Mitogen-activated protein kinase kinase kinase 1 (Homo sapiens, UniProt Q13233); test: Selectivity interaction (KinomeScan (DiscoverX)) EUB0000666a MAP3K1; details: at 10 µM
Mitogen-activated protein kinase kinase kinase 1, sequence (Q13233 whole entry): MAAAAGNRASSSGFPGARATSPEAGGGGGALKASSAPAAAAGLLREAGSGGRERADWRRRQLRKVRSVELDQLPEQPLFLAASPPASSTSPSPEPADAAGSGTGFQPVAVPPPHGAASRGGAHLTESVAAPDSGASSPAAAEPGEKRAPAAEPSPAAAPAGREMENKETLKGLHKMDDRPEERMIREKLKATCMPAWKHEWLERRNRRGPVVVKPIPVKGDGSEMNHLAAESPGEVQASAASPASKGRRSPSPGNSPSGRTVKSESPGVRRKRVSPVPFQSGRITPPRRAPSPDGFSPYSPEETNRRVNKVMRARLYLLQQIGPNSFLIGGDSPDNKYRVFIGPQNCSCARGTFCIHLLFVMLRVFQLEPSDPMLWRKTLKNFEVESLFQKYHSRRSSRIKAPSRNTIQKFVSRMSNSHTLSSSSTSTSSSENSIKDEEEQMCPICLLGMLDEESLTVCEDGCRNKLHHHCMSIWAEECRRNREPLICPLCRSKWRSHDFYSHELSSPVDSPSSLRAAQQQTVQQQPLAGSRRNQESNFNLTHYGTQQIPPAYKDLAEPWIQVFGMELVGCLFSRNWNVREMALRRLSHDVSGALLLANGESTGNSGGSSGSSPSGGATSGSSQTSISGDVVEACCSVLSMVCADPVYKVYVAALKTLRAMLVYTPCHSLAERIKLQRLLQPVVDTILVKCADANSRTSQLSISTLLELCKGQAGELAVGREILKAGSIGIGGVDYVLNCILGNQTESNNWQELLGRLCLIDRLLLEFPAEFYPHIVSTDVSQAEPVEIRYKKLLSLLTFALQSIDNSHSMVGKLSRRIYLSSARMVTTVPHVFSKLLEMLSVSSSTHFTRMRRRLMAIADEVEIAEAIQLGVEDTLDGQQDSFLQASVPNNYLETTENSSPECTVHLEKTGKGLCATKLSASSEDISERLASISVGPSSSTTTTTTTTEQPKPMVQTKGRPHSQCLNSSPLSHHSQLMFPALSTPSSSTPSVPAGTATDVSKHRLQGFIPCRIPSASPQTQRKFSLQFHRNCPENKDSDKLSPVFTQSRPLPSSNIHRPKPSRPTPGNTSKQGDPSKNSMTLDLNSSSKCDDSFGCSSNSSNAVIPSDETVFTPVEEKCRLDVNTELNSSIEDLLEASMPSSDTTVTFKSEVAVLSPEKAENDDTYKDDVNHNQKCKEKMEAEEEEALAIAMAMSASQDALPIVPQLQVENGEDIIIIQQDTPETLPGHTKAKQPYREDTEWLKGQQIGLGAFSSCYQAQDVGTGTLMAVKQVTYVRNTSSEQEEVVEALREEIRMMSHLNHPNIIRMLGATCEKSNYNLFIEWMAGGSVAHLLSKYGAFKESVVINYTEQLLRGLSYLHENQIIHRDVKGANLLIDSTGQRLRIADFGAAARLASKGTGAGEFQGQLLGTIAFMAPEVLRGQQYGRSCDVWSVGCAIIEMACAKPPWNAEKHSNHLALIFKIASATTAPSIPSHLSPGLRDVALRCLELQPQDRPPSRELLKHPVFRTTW

Potassium voltage-gated channel subfamily A member 5 (Homo sapiens), sequence (P22460 whole entry): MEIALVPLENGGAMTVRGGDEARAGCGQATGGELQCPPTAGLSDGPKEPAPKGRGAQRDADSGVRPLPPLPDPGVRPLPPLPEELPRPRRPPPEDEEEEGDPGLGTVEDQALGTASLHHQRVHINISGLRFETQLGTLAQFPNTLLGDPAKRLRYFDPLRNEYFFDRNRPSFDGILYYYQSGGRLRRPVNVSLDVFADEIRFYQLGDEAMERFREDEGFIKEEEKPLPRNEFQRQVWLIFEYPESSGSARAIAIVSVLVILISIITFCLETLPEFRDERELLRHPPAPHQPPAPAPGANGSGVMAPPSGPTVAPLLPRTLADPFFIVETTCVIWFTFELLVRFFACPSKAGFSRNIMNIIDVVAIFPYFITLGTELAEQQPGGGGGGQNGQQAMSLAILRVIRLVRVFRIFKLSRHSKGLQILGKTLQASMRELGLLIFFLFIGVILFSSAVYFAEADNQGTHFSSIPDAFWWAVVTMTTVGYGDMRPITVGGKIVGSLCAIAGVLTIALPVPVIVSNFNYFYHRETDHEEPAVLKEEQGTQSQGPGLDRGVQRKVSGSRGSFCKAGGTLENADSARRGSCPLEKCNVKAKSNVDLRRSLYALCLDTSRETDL
Serine/threonine-protein kinase pim-1, sequence (P11309 whole entry, looked up): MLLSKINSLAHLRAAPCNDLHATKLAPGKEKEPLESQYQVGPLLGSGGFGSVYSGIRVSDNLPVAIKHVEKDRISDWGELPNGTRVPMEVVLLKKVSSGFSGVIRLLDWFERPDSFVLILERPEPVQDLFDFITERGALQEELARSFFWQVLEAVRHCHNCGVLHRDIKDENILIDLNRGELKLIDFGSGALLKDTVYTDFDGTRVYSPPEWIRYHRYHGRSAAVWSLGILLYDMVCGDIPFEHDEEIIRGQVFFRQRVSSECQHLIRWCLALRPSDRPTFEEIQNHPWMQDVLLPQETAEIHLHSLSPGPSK
Cyclin-dependent kinase 15 (Homo sapiens), sequence (Q96Q40 whole entry): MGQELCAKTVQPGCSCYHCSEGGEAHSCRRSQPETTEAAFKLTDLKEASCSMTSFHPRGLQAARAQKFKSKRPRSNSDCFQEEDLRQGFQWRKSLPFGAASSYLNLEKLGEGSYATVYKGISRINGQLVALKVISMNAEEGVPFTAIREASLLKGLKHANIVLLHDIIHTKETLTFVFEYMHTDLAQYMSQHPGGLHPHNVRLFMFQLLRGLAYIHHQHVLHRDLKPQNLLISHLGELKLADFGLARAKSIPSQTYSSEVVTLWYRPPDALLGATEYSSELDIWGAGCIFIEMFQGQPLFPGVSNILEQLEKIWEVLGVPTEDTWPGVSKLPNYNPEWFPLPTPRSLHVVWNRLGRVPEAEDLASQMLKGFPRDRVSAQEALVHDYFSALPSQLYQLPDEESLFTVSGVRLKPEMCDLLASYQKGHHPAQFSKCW
Activin receptor type-2B (Homo sapiens), sequence (Q13705 whole entry): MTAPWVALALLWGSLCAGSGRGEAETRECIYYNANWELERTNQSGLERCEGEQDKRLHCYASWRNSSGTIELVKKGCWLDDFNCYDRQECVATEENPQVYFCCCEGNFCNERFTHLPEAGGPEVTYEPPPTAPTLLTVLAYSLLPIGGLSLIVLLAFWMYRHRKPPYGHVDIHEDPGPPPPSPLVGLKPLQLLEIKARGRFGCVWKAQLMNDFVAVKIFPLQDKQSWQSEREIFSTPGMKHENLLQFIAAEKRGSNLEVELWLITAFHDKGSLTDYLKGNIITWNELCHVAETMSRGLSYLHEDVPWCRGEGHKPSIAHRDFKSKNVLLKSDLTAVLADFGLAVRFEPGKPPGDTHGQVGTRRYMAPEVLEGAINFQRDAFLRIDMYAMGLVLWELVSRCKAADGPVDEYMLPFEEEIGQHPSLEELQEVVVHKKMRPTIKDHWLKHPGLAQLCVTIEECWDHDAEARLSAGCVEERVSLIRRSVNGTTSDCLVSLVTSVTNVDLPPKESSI

% of control [1]: 100%
Compound: CCN(CC)CCCCNc1ncc2cc(-c3cc(OC)cc(OC)c3)c(NC(=O)NC(C)(C)C)nc2n1

Compound: CNC(=O)Nc1ccc(-c2nc(N3CC4CCC(C3)O4)c3cnn(C4CCC5(CC4)OCCO5)c3n2)cc1
% of control [2]: 100%

Compound: N#Cc1cccc(-c2c[nH]c3ncnc(N4CCOCC4)c23)c1
% of control [3]: 95%

% of inhibition [4]: 5.32%
Compound: CC[C@@H]1[C@H](F)C(=O)N[C@@H]1COc1nccc2cc(C(N)=O)c(OC)cc12 [ZIMLOVISERTIB]

Compound: COc1cc(N(C)c2ccnc3ccc(C(F)(F)F)cc23)cc(OC)c1OC
% binding [5]: 85%

Compound: COc1cc(C(=O)N2CC[C@@H](O)[C@@H](N)C2)cc2nc(-c3cc4ccccc4n3CC3CC3)n(C)c12
pXC50 [6]: < 4.8 M

Compound: O=C(NOC[C@H](O)CO)c1ccc(F)c(F)c1Nc1ccc(I)cc1F
% of control [7]: 76%
% of control [8]: 54%
